According to patent US10206907B2, “Compounds useful for the treatment of degenerative and inflammatory diseases” (GALAPAGOS NV, priority 2008, dated 2019):
Like-named read-outs stand apart in the source and are kept apart here.

Experiments:
[1] = test system: MMP13 in SW1353 cells; test: OSM/IL-1β signaling assay (MMP13 levels in SW1353 cells); type: cell-based; conditions: Homo sapiens; SW1353 cells, OSM and IL-1β triggered, MMP13 levels 48 hours after triggering; read-out: MMP13 EC50;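 note: secreted MMP13 captured by antibody, activated with APMA and its activity read by fluorescence, inhibition scaled between vehicle-treated triggered wells (0%) and untriggered wells (100%)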
[2] = Microsomal stability, human liver microsomes; type: in vitro ADME; conditions: percentage of compound remaining after 60 minutes, 3 μM compound
Procedure, shortened: (§1)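 Percent parent remaining after 60 min was determined by LCMS against a time-zero sample quenched before microsome addition. Incubations ran at 37°C with liver microsomes and a G6PDH-based NADPH-regenerating cofactor mix. Quench was MeOH or ACN (1:1).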

[3] = biological target: Recombinant human JAK2 catalytic domain (Homo sapiens (Human), UniProt O60674); test: JAK2 inhibition assay; type: biochemical; conditions: semi-quantitative score
Procedure, shortened: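 Activity was taken as vehicle cpm minus cpm with 10 μM staurosporine, and inhibition was expressed on that scale. Incubation was 90 min at 30 °C, followed by acid quench, phosphoric acid washes and Microscint counting. Compounds were tested as dose series to obtain IC50.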

[4] = Microsomal stability, rat liver microsomes; type: in vitro ADME; conditions: percentage of compound remaining after 60 minutes, 3 μM compound
Procedure, shortened: as §1

[5] = biological target: Recombinant human JAK1 catalytic domain (Homo sapiens (Human), UniProt P23458); test: JAK1 inhibition assay; type: biochemical
Procedure, shortened: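 IC50 values come from dose-response series, with each point expressed as percent inhibition of cpm. Vehicle sets full activity and 10 μM staurosporine sets background. Incorporated radioactivity counted by scintillation after washing with 75 mM phosphoric acid.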

[6] = test system: JAK-STAT signalling in HeLa cells; test: JAK-STAT signalling assay (OSM-triggered pSTAT1(2)-luciferase reporter in HeLa cells); type: cell-based; conditions: Homo sapiens; HeLa cells, OSM-triggered pSTAT1(2)-luciferase reporter; read-out: STAT signalling EC50
Procedure, shortened: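 Read-out is oncostatin M–driven pSTAT1(2)-luciferase activity, corrected by co-transfected LacZ β-galactosidase, in transiently transfected HeLa cells cultured overnight at 37 °C, 10% CO2. Inhibition percentages against positive and negative controls were plotted across doses to derive EC50.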

[7] = biological target: Recombinant human JAK3 catalytic domain (Homo sapiens (Human), UniProt P52333); test: JAK3 inhibition assay; type: biochemical; conditions: semi-quantitative score
Method: Plates were washed 6 times with 300 μL per well of a 75 mM phosphoric acid solution and the bottom of the plates was sealed. 40 μL/well of Microscint-20 was added, the top of the plates was sealed and readout was performed using the Topcount (Perkin Elmer). Kinase activity was calculated by subtracting counts per minute (cpm) obtained in the presence of a positive control inhibitor (10 μM staurosporine) from cpm obtained in the presence of vehicle. The ability of a test compound to inhibit this activity was determined as: Percentage inhibition=((cpm determined for sample with test compound present−cpm determined for sample with positive control inhibitor) divided by (cpm determined in the presence of vehicle−cpm determined for sample with positive control inhibitor))*100%.
Dose dilution series were prepared for the compounds enabling the testing of dose-response effects in the JAK3 assay and the calculation of the IC50 for each compound.

[8] = Caco2 permeability (bi-directional); type: in vitro ADME, human; conditions: human, pH 7.4; for efflux ratio at 1 h, 10 µM: Caco-2, ratio of PappB>A/PappA>B; for Papp A→B at 1 h, 10 µM: Caco-2, apical to basolateral, read-out: Papp (A2B)
Method: Bi-directional Caco-2 assays were performed as described below.
2×10^5 cells/well were seeded in plating medium consisting of DMEM+GlutaMAXI+1% NEAA+10% FBS (FetalClone II)+1% Pen/Strep. The medium was changed every 2-3 days.
50 μM Lucifer Yellow (Sigma) was added to the donor buffer in all wells to assess integrity of the cell layers by monitoring Lucifer Yellow permeation. As Lucifer Yellow (LY) cannot freely permeate lipophilic barriers, a high degree of LY transport indicates poor integrity of the cell layer.
After a 1 hour incubation at 37° C. while shaking at an orbital shaker at 150 rpm, 70 μL aliquots were taken from both apical (A) and basal (B) chambers and added to 100 μL1 50:50 acetonitrile:water solution containing analytical internal standard (0.5 μM carbamazepine) in a 96 well plate.
Concentrations of compound in the samples were measured by high performance liquid-chromatography/mass spectroscopy (LC-MS/MS).
The Efflux ratios, as an indication of active efflux from the apical cell surface, were calculated using the ratio of PappB>A/PappA>B.
The following assay acceptance criteria were used:
Lucifer yellow permeability: ≤100 nm/s

Sequence of Recombinant human JAK1 catalytic domain (P23458 850-1154): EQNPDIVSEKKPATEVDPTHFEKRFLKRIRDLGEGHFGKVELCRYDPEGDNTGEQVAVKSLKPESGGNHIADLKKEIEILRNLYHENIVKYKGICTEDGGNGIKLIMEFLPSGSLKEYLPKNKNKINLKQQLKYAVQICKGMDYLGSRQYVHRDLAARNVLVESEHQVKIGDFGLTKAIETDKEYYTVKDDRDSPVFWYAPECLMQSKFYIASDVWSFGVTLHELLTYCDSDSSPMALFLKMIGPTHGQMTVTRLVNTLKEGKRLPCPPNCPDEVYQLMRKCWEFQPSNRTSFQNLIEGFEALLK
Sequence of Recombinant human JAK2 catalytic domain (O60674 808-1132): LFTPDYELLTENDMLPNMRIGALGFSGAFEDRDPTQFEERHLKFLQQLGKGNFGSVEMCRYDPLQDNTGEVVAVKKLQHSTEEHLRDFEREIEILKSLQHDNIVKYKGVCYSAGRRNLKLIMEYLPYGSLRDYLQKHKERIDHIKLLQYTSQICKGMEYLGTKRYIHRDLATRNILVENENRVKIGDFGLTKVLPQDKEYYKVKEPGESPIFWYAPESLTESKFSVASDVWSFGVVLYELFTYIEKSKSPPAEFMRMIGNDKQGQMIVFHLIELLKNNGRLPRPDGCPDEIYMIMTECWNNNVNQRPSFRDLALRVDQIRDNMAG
Sequence of Recombinant human JAK3 catalytic domain (P52333 781-1124): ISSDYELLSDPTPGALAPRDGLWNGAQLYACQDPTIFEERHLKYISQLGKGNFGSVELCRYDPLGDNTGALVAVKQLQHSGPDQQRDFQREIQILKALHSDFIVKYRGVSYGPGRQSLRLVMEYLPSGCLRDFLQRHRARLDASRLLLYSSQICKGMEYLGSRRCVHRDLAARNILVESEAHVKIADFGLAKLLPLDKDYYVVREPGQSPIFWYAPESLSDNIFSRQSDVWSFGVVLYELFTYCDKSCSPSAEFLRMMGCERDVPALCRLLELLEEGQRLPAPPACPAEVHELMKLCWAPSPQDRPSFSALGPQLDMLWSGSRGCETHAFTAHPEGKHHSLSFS

| SMILES | EC50 [1] [nM] | Microsomal Stability Human (%) [2] | IC50 [3] [nM] | Microsomal Stability Rat (%) [4] | IC50 ([5]; semi-quantitative score) [nM] | EC50 [6] [nM] | IC50 [7] [nM] | IC50 [5] [nM] | efflux ratio at 1 h, 10 µM [8] | Papp A→B at 1 h, 10 µM [8] [×10⁻⁶ cm/s] |
| --- | --- | --- | --- | --- | --- | --- | --- | --- | --- | --- |
| O=C(Nc1nc2cccc(-c3ccc(NS(=O)(=O)CCc4cccc(F)c4)cc3)n2n1)C1CC1 [Compound 88, N-(5-(4-(2-(3-fluorophenyl)ethylsulfonamido)phenyl)-[1,2,4]triazolo[l,5-a]pyridin-2-yl)cyclopropanecarboxamide] | > 1000 | * (* 0-25) | 101 to 500 | * (* 0-25) | < 100 | > 1000 | > 1000 |  |  |  |
| O=C(NCCCc1ccccc1)c1ccc(-c2cccc3nc(NC(=O)C4CC4)nn23)cc1 [Compound 114, 4-(2-(cyclopropanecarboxamido)-[1,2,4]triazolo[1,5-a]pyridin-5-yl)-N-(3-phenylpropyl)benzamide] | 501 to 1000 | * (* 0-25) | 101 to 500 | * (* 0-25) | < 100 | > 1000 | > 1000 |  |  |  |
| CN(C(=O)c1ccc(-c2cccc3nc(NC(=O)C4CC4)nn23)cc1)c1ccccc1 [Compound 30, 4-(2-(cyclopropanecarboxamido)-[1,2.4]triazolo[1,5-a]pyridin-5-yl)-N-methyl-N-phenylbenzamide] | > 1000 | * (* 0-25) | < 100 | * (* 0-25) | < 100 | 501 to 1000 | > 1000 |  |  |  |
| NC(=O)c1ccc(COc2ccc(-c3cccc4nc(NC(=O)C5CC5)nn34)cc2)cn1 [Compound 192, 5-{4-[2-(Cyclopropanecarbonyl-amino)-[1,2,4]triazolo[1,5-a]pyridin-5-yl]-phenoxymethyl}-pyridine-2-carboxylic Acid Amide] | 501 to 1000 | **** (**** 76-100) |  | **** (**** 76-100) |  | 101 to 500 | 101 to 500 | < 100 | 2 |  |
| CC(=O)Nc1ccc(COc2ccc(-c3cccc4nc(NC(=O)C5CC5)nn34)cc2)cc1 [Compound 92, N-(5-(4-(4-acetamidobenzyloxy)phenyl)-[1,2,4]triazolo[1,5-a]pyridin-2-yl)cyclopropanecarboxamide] | > 1000 | ** (** 26-50) | 101 to 500 | * (* 0-25) | < 100 |  | 501 to 1000 |  |  |  |
| Cn1cnc(COc2ccc(-c3cccc4nc(NC(=O)C5CC5)nn34)cc2)n1 [Compound 199, Cyclopropanecarboxylic acid {5-[4-(1-methyl-1H-[1,2,4]triazol-3-ylmethoxy)-phenyl]-[1,2,4]triazolo[1,5-a]pyridin-2-yl}-amide] | > 1000 | **** (**** 76-100) | 101 to 500 | **** (**** 76-100) | < 100 | > 1000 |  |  | 8.83 | 4.53 |
| CCCc1ccc(S(=O)(=O)Nc2ccc(-c3cccc4nc(NC(=O)C5CC5)nn34)cc2)cc1 [Compound 85, N-(5-(4-(4-propylphenylsulfonamido)phenyl)-[1,2,4]triazolo[1,5-a]pyridin-2-yl)cyclopropanecarboxamide] | > 1000 | * (* 0-25) | 101 to 500 | * (* 0-25) | < 100 | > 1000 | > 1000 |  |  |  |
| O=C(Nc1nc2cccc(-c3ccc(OCCn4cccn4)cc3)n2n1)C1CC1 [Compound 98] | > 1000 | ** (** 26-50) | 101 to 500 | ** (** 26-50) | < 100 | > 1000 | > 1000 |  |  |  |
| CN1CCN(C(=O)c2ccc(-c3cccc4nc(NC(=O)C5CC5)nn34)cc2)CC1 [Compound 71, N-(5-(4-(4-methylpiperazine-1-carbonyl)phenyl)-[1,2,4]triazolo[1,5-a]pyridin-2-yl)cyclopropanecarboxamide] | > 1000 | * (* 0-25) |  | **** (**** 76-100) | < 100 | > 1000 | > 1000 |  |  |  |
| CCCCN(CCCN1CCOCC1)C(=O)c1ccc(-c2cccc3nc(NC(=O)C4CC4)nn23)cc1 [Compound 90, N-butyl-4-(2-(cyclopropanecarboxamido)-[1,2,4]triazolo[1,5-a]pyridin-5-yl)-N-(3-morpholinopropyl)benzamide] | > 1000 | ** (** 26-50) | 501 to 1000 | ** (** 26-50) | < 100 | > 1000 | > 1000 |  |  |  |
| O=C(Nc1nc2cccc(-c3ccc(C(=O)N4CCCC4)cc3)n2n1)C1CC1 [Compound 19, N-(5-(4-(pyrrolidine-1-carbonyl)phenyl)-[1,2,4]triazolo[1,5-a]pyridin-2-yl)cyclopropanecarboxamide] | > 1000 | **** (**** 76-100) | 101 to 500 | *** (*** 51-75) | < 100 | > 1000 | > 1000 |  |  |  |
| O=C(c1ccccc1)c1ccc(-c2cccc3nc(NC(=O)C4CC4)nn23)cc1 [Compound 10, N-(5-(4-benzoylphenyl)-[1,2,4]triazolo[1,5-a]pyridin-2-yl)cyclopropanecarboxamide] | > 1000 | **** (**** 76-100) | 101 to 500 | ** (** 26-50) | < 100 | > 1000 | > 1000 |  |  |  |
| O=C(Nc1nc2cccc(-c3ccc(N4CCCCC4)nc3)n2n1)C1CC1 [Compound 3, N-(5-(6-(piperidin-1-yl)pyridin-3-yl)-[1,2,4]triazolo[1,5-a]pyridin-2-yl)cyclopropanecarboxamide] |  |  | > 1000 |  | 101 to 500 |  | > 1000 |  |  |  |
| O=C(Nc1nc2cccc(-c3ccc(NS(=O)(=O)Cc4ccccc4)cc3)n2n1)C1CC1 [Compound 77, N-(5-(4-(phenylmethylsulfonamido)phenyl)-[1,2,4]triazolo[1,5-a]pyridin-2-yl)cyclopropanecarboxamide] | 1 to 500 | ** (** 26-50) | 101 to 500 | ** (** 26-50) | < 100 | > 1000 | > 1000 |  |  |  |
| O=C(Cc1ccc(-c2cccc3nc(NC(=O)C4CC4)nn23)cc1)Nc1cccnc1 [Compound 316, Cyclopropanecarboxylic acid {5-[4-(pyridin-3-ylcarbamoylmethyl)-phenyl)-[1,2,4]triazolo[1,5-a]pyridin-2-yl}-amide] | > 1000 | *** (*** 51-75) | 101 to 500 | **** (**** 76-100) | < 100 | > 1000 |  |  | 104 | 0.3 |
| CC(Oc1ccc(-c2cccc3nc(NC(=O)C4CC4)nn23)cc1)c1ccccn1 (centres unmarked) [Compound 189, N-(5-(4-(1-(pyridin-2-yl)ethoxy)phenyl)-[1,2,4]triazolo[1,5-a]pyridin-2-yl)cyclopropanecarboxamide] | > 1000 | ** (** 26-50) |  | ** (** 26-50) | < 100 | 101 to 500 | 501 to 1000 |  |  |  |
